Experiment [1] addresses T1, human FAP protein expressed on 293T cells (Homo sapiens, UniProt Q12884).
T1 construct: expressed in transfected cells; host or cells: 293T cells, PIRES-puro3 vector, puromycin selection
T1 sequence (Q12884 1-760): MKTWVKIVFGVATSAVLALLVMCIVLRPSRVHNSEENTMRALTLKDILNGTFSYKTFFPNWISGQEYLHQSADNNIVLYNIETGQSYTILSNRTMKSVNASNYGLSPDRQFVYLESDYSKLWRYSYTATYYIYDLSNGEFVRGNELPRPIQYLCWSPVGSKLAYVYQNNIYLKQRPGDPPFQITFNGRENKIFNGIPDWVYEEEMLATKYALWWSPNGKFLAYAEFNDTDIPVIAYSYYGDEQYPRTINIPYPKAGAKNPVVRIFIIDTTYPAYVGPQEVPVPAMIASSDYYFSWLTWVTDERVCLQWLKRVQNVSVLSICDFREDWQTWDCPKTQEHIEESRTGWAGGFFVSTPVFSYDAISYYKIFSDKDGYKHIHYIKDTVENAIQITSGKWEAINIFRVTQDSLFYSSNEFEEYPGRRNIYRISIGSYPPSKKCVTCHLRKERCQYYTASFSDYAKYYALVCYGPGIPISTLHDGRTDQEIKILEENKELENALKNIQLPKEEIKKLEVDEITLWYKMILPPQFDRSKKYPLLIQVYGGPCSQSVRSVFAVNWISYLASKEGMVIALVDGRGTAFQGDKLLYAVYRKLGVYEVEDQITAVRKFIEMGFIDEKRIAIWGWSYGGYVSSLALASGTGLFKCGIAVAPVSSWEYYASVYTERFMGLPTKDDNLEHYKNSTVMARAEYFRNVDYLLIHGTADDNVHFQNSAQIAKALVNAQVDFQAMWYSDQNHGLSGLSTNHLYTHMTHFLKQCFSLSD
The experiment is described as follows: Cell binding assay by flow cytometry, 293T-human FAP cells. The procedure: Whether the humanized antibody of the present disclosure can bind to human FAP protein stably expressed on the surface of 293T cells was determined by a cell binding assay. Firstly, the sequences encoding human FAP protein (NM_004460.2, SEQ ID NO: 31) and cynomolgus FAP (XM_005573320.2, SEQ ID NO: 32) were cloned into expression vector PIRES-puro3 (Clontech, Cat #631619) […]. The vectors were used to transfect 293T cells. […]
The human FAP antibodies (huF19-LG and sibrotuzumab) were 4-fold serially diluted from a starting concentration of 200 nM to a total of 8 concentrations and added to the cells for co-incubation at 4° C. for 30 min. […] The cells were washed twice with PBS and then resuspended, and finally, fluorescence signals were detected using the […] (BD Bioscience) flow cytometer.
Whether the mutant antibody in the present disclosure can bind to human or cynomolgus FAP protein stably expressed on the surface of 293T cells was determined by a cell binding assay. […] The cells were washed twice with PBS and then resuspended, and finally, fluorescence signals were detected using the […] (BD Bioscience) flow cytometer. […]
(In flow cytometry, cells or beads pass a laser one at a time.)

For experiment [2], the system named is bilateral idiopathic pulmonary fibrosis model. The experiment is described as follows: Bleomycin-induced idiopathic pulmonary fibrosis (IPF) model in mice. The class given is in vivo, C57BL/6 mice. The procedure:
In this animal pharmacodynamic study, a bilateral idiopathic pulmonary fibrosis model was induced using bleomycin instillation into the trachea of mice supplied by KCl BioTech. The efficacy of the surrogate antibody fusion protein 28H1-Trap on pulmonary fibrosis was evaluated in this model. C57BL/6 mice (Cavens Biogle (Suzhou) Co., Ltd.) aged 8-9 weeks were treated from the day of modeling and the induced pulmonary fibrosis model was established by tracheal instillation of bleomycin after the treatment. In the next three weeks, intraperitoneal doses were given twice weekly, and the body weight was measured once every two days. The specific treatments and dosages are shown in the following table: Mice were euthanized at the end of study. At the end of study, both lungs were collected from 15 surviving animals in each group (6 in the normal group) and fixed by formalin perfusion. Histological sections were made, stained with Masson, imaged (FIGS. 7A-H), and graded by pulmonary fibrosis scores. Pathological staining results are shown in FIG. 7, where black arrows indicate intact alveolar structures and the dark interstitial parts indicate collagen accumulation.

Experiment [3] relates to renal interstitium fibrosis model induced by left ureter ligation. The experiment is described as follows: UUO renal interstitium fibrosis model in mice. The format is in vivo, C57BL/6J mice. Particulars: 20 mg/kg and 3 mg/kg intraperitoneal every other day, day 10; FIG. 9, FIG. 10. On the procedure: In this animal pharmacodynamic study, a renal interstitium fibrosis model was induced by left ureter ligation in mice supplied by KCl BioTech. The efficacy of the surrogate antibody fusion protein 28H1-Trap on renal fibrosis was evaluated in this model. C57BL/6J mice (Shanghai Jihui Laboratory Animal Care Co., Ltd.) aged 8-9 weeks were randomized by weight. On the day of modeling (day 0), the mice in groups 2-4 were anesthetized with isoflurane. The abdominal cavity was opened along the ventral midline, and the left ureter of the animal was ligated. The abdomen was closed and the skin was sutured. The treatment was given intraperitoneally on the day of modeling. The animals in group 1 were anesthetized with isoflurane. The abdominal cavity was opened along the ventral midline and closed immediately, and the skin was sutured. In the next 10 days, the treatments were given intraperitoneally once every other day, and the body weight was measured once every two days. The specific treatments and dosages are shown in the following table: The animals were given an I.P. injection of the test substance on days 0, 2, 4, 6, and 8, and the animals were given the analgesic meloxicam subcutaneously on days 1-3. The body weight was recorded daily. The kidney on the UUO side were scored for fibrosis by Masson staining. […] The degree of fibrosis of the kidney was evaluated (see FIG. 10).

With “28H1-Trap: pharmacodynamic surrogate fusion protein: anti-FAP antibody 28H1 (WO2012020006) fused to TGFβR2 extracellular domain; heavy chain SEQ ID NO: 29, light chain SEQ ID NO: 28”, in experiment [1], the “binding to human FAP protein expressed on engineered 293T cells (FACS)” value is reported as “confirmed to bind to human FAP at cellular level”. Also, the “pulmonary fibrosis grading (Ashcroft scoring)” value in experiment [2] (20 mg/kg and 3 mg/kg vs modeling group, FIG. 8B) is listed as “reduced the pulmonary fibrotic lesions in a dose-dependent manner”. Besides, in experiment [2] (20 mg/kg intraperitoneal twice weekly, 21 days, vs modeling group, FIG. 7), the “grade of pulmonary fibrotic lesions (Masson staining, pathological sections)” value was “could reduce the grade of pulmonary fibrotic lesions”. Besides, in experiment [2] (high dose (20 mg/kg) vs modeling group, FIG. 8A), the “pulmonary fibrosis staining scoring” value is on record as “can reduce fibrotic lesions in the lungs at a high dose”. Further, the “kidney fibrosis score by Masson staining” value in experiment [3] is listed as “significant dose-dependent ameliorative effect on the fibrosis in the renal cortex of the kidney”.

Source of the values: patent US20260265409A1, “ANTIBODY FUSION PROTEIN TARGETING FAP AND TGFbeta, AND USE THEREOF” (NANJING LEADS BIOLABS CO., LTD., priority 2022, published 2026).
